Positions of bridges follow the written chain, without caps; N, C: chain ends. Non-standard residues stand in square brackets, D forms with d. No end group written: not given here. Gla = N[C@@H](CC(C(=O)O)C(=O)O)C(=O)O
Tests used:
[1] = test system: TFEB; assay: TFEB localization, transcription, protein expression and phosphorylation in astrocytes; format: cell-based, mouse; conditions: qPCR
[2] = test system: astrocytes; assay: Lysotracker Red / HiLyte Abeta42 confocal microscopy in astrocytes; format: cell-based, mouse
Experimental: This was further confirmed by surface staining of LRP1 and confocal microscopy (FIG. 4Gc). […] We next assessed how Abeta42 degradation occurs in Gla-OC exposed astrocytes. This was assessed by first evaluating the protein expression of LC3II by immunoblot analysis. Under normal conditions excess cargo in cell is cast-off by a cell through a recycling pathway called ‘autophagy’. The first step in autophagy is autophagosome formation wherein LC3I a cytosolic microtubule associated protein light chain 3 gets lipidated to form LC3II and recruits to autophagosomal membranes to allow cells to be LC3II*, a bona fide marker of autophagy and the first step towards autophagic lysosomal degradation. Another requirement for autophagosomes to be functionally relevant is downstream fusion with lysosomes. Under normal conditions, autophagosomes fuse with endosomes to form a higher order organelle called […] ‘amphisomes’, which then matures to form ‘autolysosomes or terminal lysosomes’. The efficiency of autophagosome/lysosome fusion was evaluated using Lysotracker Red, a fluorescent dye that preferentially accumulates in vesicles with acidic pH. The cells were treated with Lysotracker Red for 20 min and fixed using ice-cold methanol. After confocal microscopy (Ziess) the images were analyzed using Image J (NIH). The co-occurrence of the two signals is shown as Mander's overlap co-efficient (MOC) in the range of values 0 to 1. […] This dye accumulates in acidic intracellular organelles and its fluorescence increases with acidic environments and decreases with that of alkaline. The status of lysosome biogenesis was assessed by immunoblot or immunocytochemistry. […] To evaluate lysosome biogenesis the status of LAMP2 (by immunoblot), cathepsins (by immunoblot and colorimetric activity based assay) and TFEB or transcription factor EB (by immunocytochemistry for cellular localization of transcription, by PCR for evaluating gene transcription, by immunoblot for protein expression and by co-immunoprecipitation and immunoblot to check phosphorylation of TFEB) were evaluated. […]

[3] = Gla-OC and Glu-OC in serum by ELISA; format: in vivo; conditions: 5×FAD Tg mice vs Tg controls, 300 ng per mouse per day
Text: Two-month old 5×FAD Tg mice, both male as well as female were used for the study. For the purposes of this study wild type mice is referred to as Wt and 5×FAD mice is referred to as Tg. All experimental procedures in were approved by the Institutional Animal Ethics Committee. For experimentation, the mice were divided in below groups for treatment:
1. Wild type mice given vehicle (lx PBS or phosphate buffered saline; pH 7.4). 2. 5×FAD Transgenic mice given vehicle. 3. 5×FAD Transgenic mice given carboxylated osteocalcin (Gla-OC) subcutaneously at doses (300 ng-1000 ng per mouse of weight ranging from 25-28 g for 1 month). 4. Wild type mice given Gla-OC.
Foremost the status of osteocalcin in long bones and serum of amyloid overexpressing 5×FAD Tg mice was evaluated. Thereafter, the effect of osteocalcin administration against amyloidosis in brain was tested. 1. The status of osteocalcin expression in bone was determined by evaluating the mRNA level of Bglap2 gene (gene that encodes osteocalcin in mouse) using quantitative PCR or qPCR. Long bones of mice like femur and tibia were harvested from mice after sacrifice. […] Following amplification, fold changes in gene expression versus β-actin (reference) analysis was determined using the […] (Livak) method. […] Carboxylated (Gla-OC) and undercarboxylated (Glu-OC) forms of osteocalcin in serum of mice was analyzed by ELISA. […]

## Cn1cnc(N)c2ncnc1-2 [3-methyl adenine]
[1]
  transcription of Tfeb gene in the presence of autophagy inhibitors: increased

## HiLyte Abeta42: fluorescent HiLyte labelled Abeta42 peptide added to astrocytes; challenge agent, Abeta42 alone comparator
[2]; HiLyte Abeta42 treated cells without Gla-OC
  number of Lysotracker Red puncta, lower as compared to basal: 4 fold
[2]; astrocyte cultures
  size of Lysotracker Red puncta: < 0.25 μm^2
[2]; range of values 0 to 1, Image J analysis
  degree of co-localization of HiLyte Abeta42 with Lysotracker Red (Mander's overlap co-efficient): 0.412

## CCN(CC)CCCC(C)Nc1ccnc2cc(Cl)ccc12 (stereo not drawn) [chloroquine]
[1]
  transcription of Tfeb gene in the presence of autophagy inhibitors: increased

## YLYQWLGAPVPYPDPL[Gla]PRR[Gla]VC[Gla]LNPDCDELADHIGFQEAYRRFYGPV (disulfide 23-29) [Gla-OC, carboxylated osteocalcin]
[3]
  level of Gla-OC in serum: significantly increased (p<0.05)
